From ChEMBL document CHEMBL1136447, “Biological investigation and structure-activity relationship studies on azadirone from Azadirachta indica A. Juss” (2003)

Columns and labels:
DU-145 [1] = assay: In vitro cytotoxic activity against prostate (DU145) cell line at a concentration of 10e-5 M; assay type: functional, Homo sapiens
U-251 [2] = assay: In vitro cytotoxic activity against CNS(U251) cell line at a concentration of 10e-5 M; assay type: functional, Homo sapiens
SW-620 [3] = assay: In vitro cytotoxic activity against colon (SW620) cell line at a concentration of 10e-5 M; assay type: functional, Homo sapiens
NCI-H522 [4] = assay: In vitro cytotoxicity against H522 (human adenocarcinoma) cell line at a concentration of 10e-5 M.
MCF7 [5] = assay: In vitro cytotoxic activity against breast (MCF-7/ADR) cell line at a concentration of 10e-5 M; assay type: functional, Homo sapiens
A498 [6] = assay: In vitro cytotoxic activity against renal (A498) cell line at a concentration of 10e-5 M; assay type: functional, Homo sapiens
M14 [7] = assay: In vitro cytotoxic activity against Melanoma (M14) cell line at a concentration of 10e-5 M; assay type: functional, Homo sapiens
SK-OV-3 [8] = assay: In vitro cytotoxic activity against Ovarian (SK-OV3) cell line at a concentration of 10e-5 M; assay type: functional, Homo sapiens
SK-OV-3 [9] = assay: In vitro cytotoxic activity against Ovarian (SK-OV3) cell line; assay type: functional; details: Homo sapiens
M14 [10] = assay: In vitro cytotoxic activity against Melanoma (M14) cell line; assay type: functional; details: Homo sapiens
A498 [11] = assay: In vitro cytotoxic activity against renal (A498) cell line; assay type: functional; details: Homo sapiens
NCI-H522 [12] = assay: In vitro cytotoxic activity against lung (H522) cell line; details: Homo sapiens
U-251 [13] = assay: In vitro cytotoxic activity against CNS(U251) cell line; assay type: functional; details: Homo sapiens
MCF7 [14] = assay: In vitro cytotoxic activity against breast (MCF-7/ADR) cell line; assay type: functional; details: Homo sapiens
DU-145 [15] = assay: In vitro cytotoxic activity against prostate (DU145) cell line; assay type: functional; details: Homo sapiens
SW-620 [16] = assay: In vitro cytotoxic activity against colon (SW620) cell line; assay type: functional; details: Homo sapiens

SMILES | Growth (DU-145 [1]) | Growth (U-251 [2]) | Growth (SW-620 [3]) | Growth (NCI-H522 [4]) | Growth (MCF7 [5]) | Growth (A498 [6]) | Growth (M14 [7]) | Growth (SK-OV-3 [8]) | GI50 (SK-OV-3 [9]) | GI50 (M14 [10]) | GI50 (A498 [11]) | GI50 (NCI-H522 [12]) | GI50 (U-251 [13]) | GI50 (MCF7 [14]) | GI50 (DU-145 [15]) | GI50 (SW-620 [16])
CCOC1=C[C@@]2(C)C(C[C@@H](O)[C@@]3(C)C4=CC[C@@H](c5ccoc5)[C@]4(C)CCC23)C(C)(C)C1=O (stereo not given in full) | 84% | 54% | 36% | 57% | 17% | 52% | 67% | 67% |  |  |  |  |  |  |  | 
CCCC(=O)O[C@@H]1CC2C(C)(C)C(=O)C=C[C@]2(C)C2CC[C@]3(C)C(=CC[C@H]3c3ccoc3)[C@@]21C (stereo not given in full) | 68% | 15% | 49% | 40% | 57% | 43% | 59% | 90% |  |  |  |  |  |  |  | 
CCO[C@@H]1CC2C(C)(C)C(=O)C=C[C@]2(C)C2CC[C@]3(C)C(=CC[C@H]3c3ccoc3)[C@@]21C (stereo not given in full) | 76% | 63% | 81% | 69% | 66% | 45% | 61% | 100% |  |  |  |  |  |  |  | 
CC1(C)C(O)C=C[C@@]2(C)C1C[C@@H](O)[C@@]1(C)C3=CC[C@@H](c4ccoc4)[C@]3(C)CCC21 (stereo not given in full) | 100% | 100% | 79.6% | 97% | 76% | 88.2% | 100% | 100% |  |  |  |  |  |  |  | 
CC1(C)C(=O)C=C[C@@]2(C)C1C[C@@H](OC(=O)Nc1ccccc1)[C@@]1(C)C3=CC[C@@H](c4ccoc4)[C@]3(C)CCC21 (stereo not given in full) | 76% | 71% | 64% | 51% | 55% | 100% | 74% | 100% |  |  |  |  |  |  |  | 
CC1(C)C(=O)C=C[C@@]2(C)C1C[C@@H](OC(=O)C(F)(F)F)[C@@]1(C)C3=CC[C@@H](c4ccoc4)[C@]3(C)CCC21 (stereo not given in full) | 77% | 52% | 60% | 75% | 54% | 59% | 86% | 49% |  |  |  |  |  |  |  | 
CCOC1=C[C@@]2(C)C(C[C@@H](OC(C)=O)[C@@]3(C)C4=CC[C@@H](c5ccoc5)[C@]4(C)CCC23)C(C)(C)C1=O (stereo not given in full) | 35% | 70% | 65% | 52% | 51% | 33% | 40% | 61% | 40 µM | 20 µM | 40 µM | 30 µM | 5 µM | 8 µM | 50 µM | 5 µM
CC(=O)O[C@@H]1CC2C(C)(C)C(=O)[C@@H]3O[C@@H]3[C@]2(C)C2CC[C@]3(C)C(=CC[C@H]3c3ccoc3)[C@@]21C (stereo not given in full) | 63.1% | 100% | 100% | 69.6% | 59.3% | 42.7% | 100% | 100% |  |  |  |  |  |  |  | 
CC(=O)O[C@@H]1CC2C(C)(C)C(=O)C=C[C@]2(C)C2CC[C@]3(C)C(=CC[C@H]3C3=CC(=O)OC3O)[C@@]21C.CC(=O)O[C@@H]1CC2C(C)(C)C(=O)C=C[C@]2(C)C2CC[C@]3(C)C(=CC[C@H]3C3=CC(O)OC3=O)[C@@]21C (stereo not given in full) | 24.8% | 44.3% | 100% | 73.3% | -13% | 70.3% | 71.3% | 41.6% |  |  |  |  |  |  |  | 
CC(C)C(=O)O[C@@H]1CC2C(C)(C)C(=O)C=C[C@]2(C)C2CC[C@]3(C)C(=CC[C@H]3c3ccoc3)[C@@]21C (stereo not given in full) | 69% | 40% | 61% | 54% | 57% | 74% | 95% | 84% |  |  |  |  |  |  |  | 
COc1ccc(/C=C\C(=O)O[C@@H]2CC3C(C)(C)C(=O)C=C[C@]3(C)C3CC[C@]4(C)C(=CC[C@H]4c4ccoc4)[C@@]32C)cc1OC (stereo not given in full) | 25% | 77% | 62% | 63% | 66% | 5% | 39% | 85% |  |  |  |  |  |  |  | 
CC(=O)O[C@@H]1CC2C(C)(C)/C(=N/O)C=C[C@]2(C)C2CC[C@]3(C)C(=CC[C@H]3c3ccoc3)[C@@]21C (stereo not given in full) | 56% | 5% | 47% | 44% | 55% | 20% | 38% | 87% |  |  |  |  |  |  |  | 
CC(=O)OC1C=C[C@@]2(C)C(C[C@@H](OC(C)=O)[C@@]3(C)C4=CC[C@@H](c5ccoc5)[C@]4(C)CCC23)C1(C)C (stereo not given in full) | 74% | 46% | 59% | 86% | 78% | 69% | 76% | 19.3% |  |  |  |  |  |  |  | 
CC1(C)C(=O)C=C[C@@]2(C)C1C[C@@H](O)[C@@]1(C)C3=CC[C@@H](c4ccoc4)[C@]3(C)CCC21 (stereo not given in full) | 46% | 46% | 100% | 100% | 36% | 65% | 15.8% | 64% | > 100 µM | 9 µM | > 100 µM | > 100 µM | 3.5 µM | 5 µM | 9.5 µM | > 100 µM
COC1=C[C@@]2(C)C(C[C@@H](OC(C)=O)[C@@]3(C)C4=CC[C@@H](c5ccoc5)[C@]4(C)CCC23)C(C)(C)C1=O (stereo not given in full) | 47% | 63% | 35% | 82% | 58% | 50% | 67% | 38% | 35 µM | 40 µM | 40 µM | 40 µM | 20 µM | 95 µM | 40 µM | 20 µM
CCC(=O)O[C@@H]1CC2C(C)(C)C(=O)C=C[C@]2(C)C2CC[C@]3(C)C(=CC[C@H]3c3ccoc3)[C@@]21C (stereo not given in full) | 67% | 40% | 51% | 48% | 29% | 67% | 39% | 61% |  |  |  |  |  |  |  | 
CC1(C)C(=O)C=C[C@@]2(C)C1C[C@@H](OC(=O)/C=C\c1ccccc1)[C@@]1(C)C3=CC[C@@H](c4ccoc4)[C@]3(C)CCC21 (stereo not given in full) | 81% | 41% | 86% | 69% | 55% | 48% | 41% | 86% |  |  |  |  |  |  |  | 
